The results in this text go back to US20090156404A1, “Methods and Compositions for Reducing Stress in Plants” (CROP MICROCLIMATE MANAGEMENT, INC., priority 2007, published 2009).

Each structure is given as a SMILES string.

Format in all cases: in vivo, tomato
Assay [1] concerns tomatoes (var. Marglobe). Kind of assay: Freeze event, greenhouse grown tomatoes sprayed with composition (Example 1). The settings on record: exposures to −3.3° C. The source says: Unadapted plants in trays were sprayed with a composition comprised of a particulate material and a plant growth regulating compound mixed with water. The composition was applied using a backpack sprayer in a factorial trial design. The particulate material used was kaolin, applied at 25 and 50 kg/ha. […] Two plant growth regulating compounds, methyl salicylate and sodium salicylate, were each mixed individually with the kaolin. In addition to combinations of kaolin and each of the plant growth regulating compounds, the experiment included applying kaolin alone and each of the plant growth regulating compounds alone, each mixed with water. The concentrations of each of the plant growth regulating compounds in the composition were 1×10^−4M and 1×10^−5M.

The subject of assay [2] is tomatoes (var. Marglobe). Kind of assay: Growth chamber induced temperature/light stress in tomatoes (Example 2). Conditions: for Chlorosis (%): after five days, 4 to 42° C. The protocol: In this example, a growth chamber was used to induce stress in plants. Tomatoes (var. Marglobe) were greenhouse grown, then adapted in the growth chamber for two days at a constant 20° C. and the highest light intensity produced by the growth chamber. The temperature was then programmed for a multi-step diurnal variation between about 4 and about 42° C. The plants were treated with a composition comprised of a particulate material and a plant growth regulating compound mixed with water. The particulate material used was Kaolin, applied at 25 and 50 kg/ha. […] The plant growth regulating compound was sodium salicylate, which was applied at 1×10^−4M and 1×10^−5M in the composition. In addition to combinations of kaolin and the plant growth regulating compound, the experiment included applying kaolin alone and the plant growth regulating compound alone, each mixed with water.

Assay [3] has as its system Field-grown tomatoes (var. Better Boy). Kind of assay: Field trial without irrigation, weekly treatments (Example 3). The source says: Treatment consisted of a composition comprised of a particulate material and a plant growth regulating compound mixed with water. The particulate material was kaolin, applied at 25 and 50 kg/ha. […] The plant growth regulating compound was sodium salicylate, which was applied at a concentration of 1×10^−5M in the composition. In addition to combinations of kaolin and the plant growth regulating compound, the experiment included applying kaolin alone and the plant growth regulating compound alone, each mixed with water. The trial was conducted in a grower field of sandy soil in Wake County, N.C. under grower conditions. The conditions were considered to be severe, as there was no irrigation and rainfall was insufficient during the trial. Treatments were applied at weekly intervals. The trial was a randomized complete block design with three replications.

Assay [4] relates to early season tomatoes (var. Mountain Spring). Kind of assay: Irrigated field trial, flower abortion (Example 4). Conditions: 1 × 10^−5M. The text has this:
In addition to combinations of kaolin and the plant growth regulating compound, the experiment included applying kaolin alone and the plant growth regulating compound alone, each mixed with water.

The subject of another assay is Potted tomatoes. Kind of assay: Chill stress of potted tomatoes under field conditions (Example 5). The settings on record: particulate 0 kg/ha, rating 10 completely healthy, 0 dead. The source says: Potted tomatoes under field conditions were subjected to cold temperatures in Australia in September-October 2007. […] The plants were sprayed with a composition comprised of particulate material and a plant growth regulating compound mixed with water. The particulate material used was kaolin, applied at 25 and 50 kg/ha. […] Two plant growth regulating compounds, sodium salicylate and benzyl acetate, were each mixed individually with the kaolin. The concentration of each plant growth regulating compound in the composition was 1×10^−5M. In addition to combinations of kaolin and each of the plant growth regulating compounds, the experiment included applying kaolin alone and sodium salicylate alone each mixed with water. The vigor and health of the plants were evaluated during the period of the trial.

`COC(=O)c1ccccc1O` [Me Salicylate, methyl salicylate]: the “Mortality (%)” value with tomatoes (var. Marglobe) [1] (1 × 10^−4M) is listed as 0%; in the assay with tomatoes (var. Marglobe) [1] (1 × 10^−5M), 20%.
Take `O=C([O-])c1ccccc1O.[Na+]` [Na Salicylate, sodium salicylate]: the “Mortality (%)” value in the assay with tomatoes (var. Marglobe) [1] (1 × 10^−4M) is given as 83%; in the assay on tomatoes (var. Marglobe) [1] (1 × 10^−5M), 6.3%. Further, the “Growth (cm)” value in the assay on tomatoes (var. Marglobe) [2] (1 × 10^−4M) and with tomatoes (var. Marglobe) [2] (1 × 10^−5M) was 1.9 cm throughout. The “Chlorosis (%)” value in the assay with tomatoes (var. Marglobe) [2] (1 × 10^−4M) stood at 7.5%; in the assay with tomatoes (var. Marglobe) [2] (1 × 10^−5M) it was 8.8%. Further, the “# flower clusters/plant” value was found to be 2.61 in assay [3] (Rating 1, 1 × 10^−5M) and 3.78 in assay [3] (Rating 2, 1 × 10^−5M). Moreover, in assay [3] (Rating 2, 1 × 10^−5M), the “# Fruit > 2 cm” value is on record as 1.05. Further, the “# Mature blossoms” value in assay [3] (Rating 3, 1 × 10^−5M) came out at 2.89. Moreover, the “# clusters/plant” value in assay [3] (Rating 3, 1 × 10^−5M) was found to be 0.75. For the same compound, in assay [3] (Rating 3, 1 × 10^−5M), the “Fruit > 1 cm” value is given as 1.46. For the same compound, the “stress protection (in words)” value in assay [3] (plant growth, flowering, fruit clusters per plant, no irrigation) is “values intermediate between the untreated plants and the plants treated with both”. The results for the “# Aborted Flowers/Plant” value in assay [4] (Rating 1) and in assay [4] (Rating 2) were 20.75 and 3.94, respectively. The “Plant Vigor/Health” value came out at 7.7 a in the assay with Potted tomatoes (7/10/2007, growth compound 0.8 g/ha); 7.3 a in the assay with Potted tomatoes (7/10/2007, growth compound 1.6 g/ha); 10 a in the assay with Potted tomatoes (12/9/2007, growth compound 0.8 g/ha); 10 a with Potted tomatoes (12/9/2007, growth compound 1.6 g/ha); 6.5 ab with Potted tomatoes (26/09/2007, growth compound 0.8 g/ha); 6.5 ab in the assay with Potted tomatoes (26/09/2007, growth compound 1.6 g/ha).
